Experimental data from patent publication US6121512A, “Cytochrome P-450 constructs and method of producing herbicide-resistant transgenic plants” (North Carolina State University, priority 1997, dated 2000).

Key:
[1] = system: excised leaves of control tobacco plants transformed with pBI121; assay: In vivo herbicide metabolism assay, excised leaves of control tobacco; design: species or system Nicotiana tabacum cv SR1; conditions: after 14 hours; 1.2 nmol herbicide; standard error in parentheses; three pBI121 control plants
Method: Seeds from primary transgenic tobacco plants transformed with CYP71A10 and control plants transformed with the pBI121 vector were grown in Petri dishes containing MS salts and 100 μg/ml kanamycin. At five weeks post-seeding, kanamycin-resistant plantlets were transplanted into pots containing soil and grown an additional two weeks. Single leaves of approximately 10 cm^2 in size were excised and their petioles inserted into 100 μl of H2 O containing radiolabeled herbicide. The leaves were placed in a growth chamber maintaining a temperature of 27° C. and incubated until the entire volume of the herbicide solution was drawn up by the transpirational stream of the leaves (about 3 hrs). The leaves were subsequently transferred into an Eppendorf tube containing distilled water and further incubated for a total of 14 hours.
[^14 C]-labeled herbicide was extracted from the leaves by grinding for 5 minutes in 250 μl methanol with a plastic pellet pestle driven by an electric drill. After centrifugation for 3 minutes at 14,000 g, 75μl of the supernatant was spotted on a Whatman K6F silica plate and developed in a solvent system containing chloroforn/ethanol/acetic acid 135:10:15 (v/v/v). The separated herbicide derivatives were visualized using an imaging scanner. Substrate conversion was quantified based on the amount of herbicide absorbed, and the ratios of the parent compound and the produced metabolites determined from the TLC profiles.

soybean CYP71A10 = molecular target: T1, soybean CYP71A10 (Glycine max, UniProt O48918); assay: In vitro herbicide metabolism assay and enzyme kinetics, microsomes of yeast expressing CYP71A10; format: biochemical
T1 construct: microsomes of yeast W(R) overexpressing endogenous P450 reductase
T1 sequence (O48918 1-513): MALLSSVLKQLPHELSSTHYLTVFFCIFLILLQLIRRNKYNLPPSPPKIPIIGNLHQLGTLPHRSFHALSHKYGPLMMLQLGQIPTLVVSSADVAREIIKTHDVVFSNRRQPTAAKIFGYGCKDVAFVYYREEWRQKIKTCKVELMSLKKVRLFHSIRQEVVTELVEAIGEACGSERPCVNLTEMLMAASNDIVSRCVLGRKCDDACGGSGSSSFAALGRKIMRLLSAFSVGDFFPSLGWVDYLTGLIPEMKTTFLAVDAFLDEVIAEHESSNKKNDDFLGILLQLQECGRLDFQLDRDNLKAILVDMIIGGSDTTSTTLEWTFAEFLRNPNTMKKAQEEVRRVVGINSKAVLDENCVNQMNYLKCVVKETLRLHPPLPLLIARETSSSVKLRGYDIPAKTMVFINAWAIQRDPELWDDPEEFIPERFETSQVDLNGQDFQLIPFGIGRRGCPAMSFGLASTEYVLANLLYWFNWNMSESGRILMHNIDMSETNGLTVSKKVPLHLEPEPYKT
T1 sequence (P16603 1-691 partner): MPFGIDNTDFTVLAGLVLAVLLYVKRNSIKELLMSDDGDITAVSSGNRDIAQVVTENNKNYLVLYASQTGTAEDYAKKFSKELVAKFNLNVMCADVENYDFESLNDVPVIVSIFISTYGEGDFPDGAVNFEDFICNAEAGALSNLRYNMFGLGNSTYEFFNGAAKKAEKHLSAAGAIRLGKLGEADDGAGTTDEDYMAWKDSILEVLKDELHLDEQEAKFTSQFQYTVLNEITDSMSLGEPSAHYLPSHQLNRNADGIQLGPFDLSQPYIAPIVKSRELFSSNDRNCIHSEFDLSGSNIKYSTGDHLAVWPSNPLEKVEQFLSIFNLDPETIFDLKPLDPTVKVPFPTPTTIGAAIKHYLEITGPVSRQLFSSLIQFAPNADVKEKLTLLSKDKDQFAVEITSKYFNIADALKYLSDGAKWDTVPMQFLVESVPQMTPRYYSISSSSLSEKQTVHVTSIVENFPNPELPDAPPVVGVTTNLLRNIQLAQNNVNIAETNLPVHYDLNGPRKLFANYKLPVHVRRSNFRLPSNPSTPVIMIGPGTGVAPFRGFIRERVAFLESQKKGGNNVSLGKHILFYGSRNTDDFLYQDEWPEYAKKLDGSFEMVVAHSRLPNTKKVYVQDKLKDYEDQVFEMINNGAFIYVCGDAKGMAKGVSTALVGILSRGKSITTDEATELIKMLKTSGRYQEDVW
Method: Yeast transformation was performed as described by Geitz et al., Nucleic Acids Research 20:1425 (1992). Media composition, culturing conditions, galactose induction, and microsomal preparations were conducted according to Pompon et al., Methods Enzymol. 272:51-64 (1995), using a culture volume of 250 ml. Microsomal protein was quantified spectrophotometrically using the method of Waddell, J. Lab. Clin. Med. 48:311-314 (1956), using bovine albumin as a standard. Dithionite-reduced, carbon monoxide difference spectra was obtained as previously outlined (Estabrook and Werringloer, Methods Ennzmol. 52:212-220 (1978)) using a Shimadzu Recording Spectrophotometer UV-240 (Shimadzu, Kyoto, Japan). P-450 protein concentrations of yeast microsomes were calculated using a millimolar extinction coefficient of 91 (Omura and Sato, J. Biol. Chem., 239:2370-2378 (1964)).
Yeast microsomes enriched for a discrete soybean P-450 isozyme were assayed for their capacity to metabolize the ten herbicides and one insecticide listed in Table 3. The reaction mixtures contained 10,000 DPM (100-200 ng) radiolabeled substrate, 0.75 mM NAPDH, 2.5 mg/ml microsomal protein. Total reaction volumes were adjusted to 150 μl with 50 mM phosphate buffer (pH 7.1). The mixtures were incubated under light for 45 minutes at 27° C., arrested with 50 μl acetone and centriftiged at 14 000×g for 2 minutes. […] Radiolabeled bentazon and imazaquin-containing samples were spotted onto 200 micron Whatman LKC18F silica gel reversed-phase plates. All plates were developed in a benzene/acetone 2:1 (v/v) solvent system with the exception of prosulfaron, developed in toluene/acetone/acetic acid, 75:20:5 (v/v/v), and bentazon and imazaquin, developed in methanol/75 mM sodium acetate 40:60 (v/v). The developed plates were scanned with a Bioscan System 400 imaging scanner (Bioscan, Washington, D.C.), and the production of metabolites was determined based on the chromatographic profiles. For microsomes containing the expressed CYP71A10 enzyme, control experiments were also conducted to measure the NADPH-dependency, and the inhibitory effects of CO. CO treatment of the sample was achieved by gentle bubbling of the gas through the reaction mixture for 2 minutes immediately before the assay was initiated by the addition of NADPH.
Substrate conversion was quantified by a combination of TLC analysis and scintillation spectrometry. The location of the metabolic products on the TLC plates was identified using an imaging scanner, the bands were scraped and analyzed by scintillation spectrometry. The amount of metabolite produced was calculated based on specific activity and scintillation counts. Each assay was repeated at least twice. Km and Vmax values were estimated using nonlinear regression analysis.

Cc1ccc(NC(=O)N(C)C)cc1Cl [Chlortoluron, chlortoluron]
% of herbicide metabolized, Control [1]: 39 (7.5) % | metabolites formed from the radiolabeled herbicide (TLC) (soybean CYP71A10; 45 minutes at 27° C., 0.75 mM NADPH, 2.5 mg/ml microsomal protein): two (a major and a minor) metabolites | Turnover (soybean CYP71A10; yeast microsomes containing CYP71A10, standard error in parentheses): 0.7 (0.05) min^-1
